Where a name gives a salt, the structure may show the parent alone. Active and inactive are the calls of the source.
Tests used:
Ephrin type-B receptor 4 = molecular target: T1, Ephrin type-B receptor 4 (Homo sapiens, UniProt P54760)
T1 sequence (P54760 whole entry): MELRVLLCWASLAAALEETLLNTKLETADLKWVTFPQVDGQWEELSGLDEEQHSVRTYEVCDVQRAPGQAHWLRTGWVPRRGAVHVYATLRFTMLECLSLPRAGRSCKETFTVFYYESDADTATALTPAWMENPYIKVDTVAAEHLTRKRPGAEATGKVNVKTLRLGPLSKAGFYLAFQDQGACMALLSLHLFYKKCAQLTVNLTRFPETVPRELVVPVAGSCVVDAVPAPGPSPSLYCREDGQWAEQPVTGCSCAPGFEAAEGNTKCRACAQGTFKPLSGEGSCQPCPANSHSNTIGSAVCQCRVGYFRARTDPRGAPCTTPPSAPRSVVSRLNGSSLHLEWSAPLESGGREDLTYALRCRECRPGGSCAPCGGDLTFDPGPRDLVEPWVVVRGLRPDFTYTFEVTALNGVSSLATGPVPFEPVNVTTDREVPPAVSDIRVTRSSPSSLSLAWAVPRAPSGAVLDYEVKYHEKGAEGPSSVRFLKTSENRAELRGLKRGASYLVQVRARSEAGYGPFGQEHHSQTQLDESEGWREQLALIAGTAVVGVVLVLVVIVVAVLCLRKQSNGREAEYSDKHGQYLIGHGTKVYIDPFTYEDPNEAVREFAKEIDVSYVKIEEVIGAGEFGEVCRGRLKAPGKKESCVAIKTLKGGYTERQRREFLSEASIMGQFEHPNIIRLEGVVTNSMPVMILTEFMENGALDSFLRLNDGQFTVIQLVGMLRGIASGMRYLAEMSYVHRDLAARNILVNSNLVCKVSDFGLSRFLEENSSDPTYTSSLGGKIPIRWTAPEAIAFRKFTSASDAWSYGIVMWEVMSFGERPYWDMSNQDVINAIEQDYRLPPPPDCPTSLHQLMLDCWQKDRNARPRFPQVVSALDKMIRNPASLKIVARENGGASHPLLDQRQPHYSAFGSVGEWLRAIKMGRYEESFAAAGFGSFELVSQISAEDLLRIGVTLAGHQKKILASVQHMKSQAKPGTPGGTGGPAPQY

[1] = molecular target: T2, Dual specificity mitogen-activated protein kinase kinase 3 (Homo sapiens, UniProt P46734)
T2 sequence (P46734 whole entry): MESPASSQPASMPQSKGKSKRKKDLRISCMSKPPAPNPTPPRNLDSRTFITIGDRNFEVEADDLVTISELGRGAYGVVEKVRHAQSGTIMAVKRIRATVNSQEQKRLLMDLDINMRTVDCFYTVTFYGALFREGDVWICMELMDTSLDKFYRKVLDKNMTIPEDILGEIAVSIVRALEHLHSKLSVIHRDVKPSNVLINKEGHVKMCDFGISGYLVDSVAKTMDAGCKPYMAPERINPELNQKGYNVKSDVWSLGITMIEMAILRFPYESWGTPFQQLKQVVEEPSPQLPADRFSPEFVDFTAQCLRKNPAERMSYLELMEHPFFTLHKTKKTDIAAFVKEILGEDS

[2] = molecular target: T3, Dual specificity mitogen-activated protein kinase kinase 6 (Homo sapiens, UniProt P52564)
T3 sequence (P52564 whole entry): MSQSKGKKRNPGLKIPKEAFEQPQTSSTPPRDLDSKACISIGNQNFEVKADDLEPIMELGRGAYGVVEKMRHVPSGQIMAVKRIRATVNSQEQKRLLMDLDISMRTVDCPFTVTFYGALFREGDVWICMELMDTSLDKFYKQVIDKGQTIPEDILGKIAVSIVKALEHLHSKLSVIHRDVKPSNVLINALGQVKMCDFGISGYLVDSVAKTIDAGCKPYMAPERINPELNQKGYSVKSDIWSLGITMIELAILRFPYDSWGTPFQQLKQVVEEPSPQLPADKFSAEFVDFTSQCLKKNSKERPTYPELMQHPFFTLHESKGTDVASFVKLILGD

[3] = molecular target: Mitogen-activated protein kinase 7 (Homo sapiens, UniProt Q13164)
Mitogen-activated protein kinase 7, sequence (Q13164 whole entry): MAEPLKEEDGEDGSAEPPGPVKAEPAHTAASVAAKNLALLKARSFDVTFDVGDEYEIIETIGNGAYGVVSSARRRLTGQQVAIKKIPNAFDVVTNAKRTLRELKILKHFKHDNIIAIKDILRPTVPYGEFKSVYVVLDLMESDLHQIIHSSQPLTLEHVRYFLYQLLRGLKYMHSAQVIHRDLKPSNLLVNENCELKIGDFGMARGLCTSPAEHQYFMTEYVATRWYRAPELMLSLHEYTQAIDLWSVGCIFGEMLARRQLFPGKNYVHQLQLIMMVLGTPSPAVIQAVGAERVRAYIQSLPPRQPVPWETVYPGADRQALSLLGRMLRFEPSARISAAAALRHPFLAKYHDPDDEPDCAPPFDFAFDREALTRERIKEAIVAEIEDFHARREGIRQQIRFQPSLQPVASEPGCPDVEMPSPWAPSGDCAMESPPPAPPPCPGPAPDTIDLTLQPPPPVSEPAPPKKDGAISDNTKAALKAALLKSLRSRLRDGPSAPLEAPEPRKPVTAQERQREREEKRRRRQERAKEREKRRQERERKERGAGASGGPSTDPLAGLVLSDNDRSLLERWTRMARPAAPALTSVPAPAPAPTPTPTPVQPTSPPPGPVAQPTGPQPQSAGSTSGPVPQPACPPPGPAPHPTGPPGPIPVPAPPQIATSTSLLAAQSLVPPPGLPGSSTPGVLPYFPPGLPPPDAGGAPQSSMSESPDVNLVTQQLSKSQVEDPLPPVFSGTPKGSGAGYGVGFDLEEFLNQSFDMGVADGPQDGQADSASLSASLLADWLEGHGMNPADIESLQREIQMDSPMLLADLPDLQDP

Myosin-14 = Myosin-14 (Homo sapiens, UniProt Q7Z406)
Myosin-14, sequence (Q7Z406 whole entry): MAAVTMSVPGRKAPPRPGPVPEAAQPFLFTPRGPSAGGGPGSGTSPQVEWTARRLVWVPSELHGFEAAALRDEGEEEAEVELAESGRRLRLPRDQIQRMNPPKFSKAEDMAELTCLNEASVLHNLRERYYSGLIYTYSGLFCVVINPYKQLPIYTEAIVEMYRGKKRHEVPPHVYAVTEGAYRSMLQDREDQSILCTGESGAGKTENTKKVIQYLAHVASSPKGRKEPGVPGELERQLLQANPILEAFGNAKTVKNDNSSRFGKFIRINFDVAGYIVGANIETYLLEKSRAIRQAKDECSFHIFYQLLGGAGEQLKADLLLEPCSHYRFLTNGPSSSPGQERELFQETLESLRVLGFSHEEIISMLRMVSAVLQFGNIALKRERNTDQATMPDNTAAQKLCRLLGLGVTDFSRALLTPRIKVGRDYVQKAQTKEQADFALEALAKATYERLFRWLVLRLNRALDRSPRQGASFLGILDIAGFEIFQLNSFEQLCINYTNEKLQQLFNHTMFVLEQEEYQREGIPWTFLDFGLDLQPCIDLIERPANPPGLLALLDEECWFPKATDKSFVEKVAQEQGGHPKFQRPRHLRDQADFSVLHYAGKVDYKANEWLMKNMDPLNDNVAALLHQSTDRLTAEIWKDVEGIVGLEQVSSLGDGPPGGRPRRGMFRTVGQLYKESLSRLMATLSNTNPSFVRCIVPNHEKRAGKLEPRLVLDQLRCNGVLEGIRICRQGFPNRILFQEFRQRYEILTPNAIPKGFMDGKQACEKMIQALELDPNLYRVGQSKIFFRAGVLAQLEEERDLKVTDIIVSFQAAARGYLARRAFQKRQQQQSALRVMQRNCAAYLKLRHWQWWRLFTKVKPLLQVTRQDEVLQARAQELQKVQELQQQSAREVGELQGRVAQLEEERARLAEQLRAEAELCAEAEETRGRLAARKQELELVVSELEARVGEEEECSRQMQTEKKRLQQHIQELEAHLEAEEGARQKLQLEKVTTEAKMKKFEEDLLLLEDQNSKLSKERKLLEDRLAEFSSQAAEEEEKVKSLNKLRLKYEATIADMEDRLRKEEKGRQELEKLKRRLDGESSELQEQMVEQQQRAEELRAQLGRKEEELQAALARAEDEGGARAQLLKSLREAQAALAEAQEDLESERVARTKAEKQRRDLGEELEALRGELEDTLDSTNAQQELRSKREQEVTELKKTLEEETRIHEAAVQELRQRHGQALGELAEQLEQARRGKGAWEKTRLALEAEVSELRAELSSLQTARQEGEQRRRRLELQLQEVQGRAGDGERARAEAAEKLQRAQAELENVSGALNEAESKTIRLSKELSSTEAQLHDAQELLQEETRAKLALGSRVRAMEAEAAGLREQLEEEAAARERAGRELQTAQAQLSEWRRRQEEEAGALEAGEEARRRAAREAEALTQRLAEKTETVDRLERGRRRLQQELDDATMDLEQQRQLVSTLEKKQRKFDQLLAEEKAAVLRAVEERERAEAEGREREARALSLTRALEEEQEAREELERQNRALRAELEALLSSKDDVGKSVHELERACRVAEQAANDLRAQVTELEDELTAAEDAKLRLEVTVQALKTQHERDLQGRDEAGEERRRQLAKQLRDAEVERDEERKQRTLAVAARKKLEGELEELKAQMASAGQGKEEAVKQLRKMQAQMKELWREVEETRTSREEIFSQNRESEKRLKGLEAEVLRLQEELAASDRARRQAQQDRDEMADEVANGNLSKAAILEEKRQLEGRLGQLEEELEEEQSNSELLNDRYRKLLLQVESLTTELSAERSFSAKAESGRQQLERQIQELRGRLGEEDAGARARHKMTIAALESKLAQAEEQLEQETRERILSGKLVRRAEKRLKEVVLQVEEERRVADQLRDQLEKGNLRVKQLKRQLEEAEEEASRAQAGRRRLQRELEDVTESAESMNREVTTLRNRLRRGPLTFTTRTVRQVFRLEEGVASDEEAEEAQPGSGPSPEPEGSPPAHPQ

[4] = molecular target: T4, RNA cytidine acetyltransferase (Homo sapiens, UniProt Q9H0A0)
T4 sequence (Q9H0A0 whole entry): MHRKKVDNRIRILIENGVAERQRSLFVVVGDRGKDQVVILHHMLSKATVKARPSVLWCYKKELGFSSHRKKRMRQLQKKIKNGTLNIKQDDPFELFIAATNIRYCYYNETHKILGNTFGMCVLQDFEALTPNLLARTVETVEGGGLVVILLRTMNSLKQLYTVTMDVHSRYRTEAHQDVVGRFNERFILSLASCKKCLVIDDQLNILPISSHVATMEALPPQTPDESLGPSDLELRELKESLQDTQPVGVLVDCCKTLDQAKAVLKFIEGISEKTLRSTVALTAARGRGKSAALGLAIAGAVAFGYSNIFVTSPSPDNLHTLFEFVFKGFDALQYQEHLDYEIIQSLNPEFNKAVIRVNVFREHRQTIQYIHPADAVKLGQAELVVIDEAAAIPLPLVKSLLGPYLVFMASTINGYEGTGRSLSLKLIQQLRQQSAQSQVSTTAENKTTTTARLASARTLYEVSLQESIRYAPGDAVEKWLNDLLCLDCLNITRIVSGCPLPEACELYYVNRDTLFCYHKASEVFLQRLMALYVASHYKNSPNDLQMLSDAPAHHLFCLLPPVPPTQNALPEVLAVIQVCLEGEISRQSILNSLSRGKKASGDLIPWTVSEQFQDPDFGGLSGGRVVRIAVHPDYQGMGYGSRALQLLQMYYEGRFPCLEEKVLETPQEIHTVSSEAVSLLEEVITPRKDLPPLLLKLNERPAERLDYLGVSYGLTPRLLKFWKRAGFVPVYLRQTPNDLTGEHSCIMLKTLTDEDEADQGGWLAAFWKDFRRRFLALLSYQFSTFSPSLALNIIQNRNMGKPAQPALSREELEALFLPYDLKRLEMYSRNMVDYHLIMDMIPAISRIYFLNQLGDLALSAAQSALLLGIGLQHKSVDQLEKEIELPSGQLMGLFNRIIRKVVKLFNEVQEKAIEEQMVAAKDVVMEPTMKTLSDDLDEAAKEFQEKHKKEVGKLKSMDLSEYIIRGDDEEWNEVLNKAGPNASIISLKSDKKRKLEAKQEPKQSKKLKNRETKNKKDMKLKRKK

[5] = molecular target: Ribosomal protein S6 kinase alpha-5 (Homo sapiens, UniProt O75582)
Ribosomal protein S6 kinase alpha-5, sequence (O75582 whole entry): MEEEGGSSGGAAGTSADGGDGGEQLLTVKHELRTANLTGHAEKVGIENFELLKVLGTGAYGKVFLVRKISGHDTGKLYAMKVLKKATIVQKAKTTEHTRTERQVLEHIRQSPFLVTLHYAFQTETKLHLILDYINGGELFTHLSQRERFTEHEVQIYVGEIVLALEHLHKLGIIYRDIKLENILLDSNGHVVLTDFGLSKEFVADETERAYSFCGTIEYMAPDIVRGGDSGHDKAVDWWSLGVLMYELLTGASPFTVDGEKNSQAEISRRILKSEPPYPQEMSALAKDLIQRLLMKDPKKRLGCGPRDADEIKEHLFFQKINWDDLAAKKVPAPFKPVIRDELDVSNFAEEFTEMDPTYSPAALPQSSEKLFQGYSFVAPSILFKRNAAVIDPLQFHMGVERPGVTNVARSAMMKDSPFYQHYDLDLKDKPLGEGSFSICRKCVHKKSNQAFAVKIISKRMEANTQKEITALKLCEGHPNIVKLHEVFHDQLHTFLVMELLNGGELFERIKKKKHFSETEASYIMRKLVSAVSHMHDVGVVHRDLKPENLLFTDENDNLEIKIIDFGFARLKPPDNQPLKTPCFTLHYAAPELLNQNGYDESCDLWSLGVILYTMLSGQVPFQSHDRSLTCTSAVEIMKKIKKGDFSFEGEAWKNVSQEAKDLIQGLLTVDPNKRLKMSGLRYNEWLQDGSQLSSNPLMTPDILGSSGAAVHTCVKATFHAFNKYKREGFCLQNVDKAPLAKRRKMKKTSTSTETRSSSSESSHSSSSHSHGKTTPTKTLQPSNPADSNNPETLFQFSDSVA
Note: in the data inactive means no Kd found up to 30 µM.

## CC(=O)c1cnc2ccc(-c3cc(Cl)c(O)c(Cl)c3)nc2c1N[C@H]1CC[C@H](CN(C)C)CC1
Ephrin type-B receptor 4
  Kd: 0.143 µM (active)
[1]
  Kd: > 30 µM (inactive)
[2]
  Kd: 4.56 µM (active)
[3]
  Kd: > 30 µM (inactive)
Myosin-14
  Kd: > 30 µM (inactive)
[4]
  Kd: > 30 µM (inactive)
[5]
  Kd: 0.298 µM (active)

## CCNC(=O)C#Cc1ccc2c(c1)NC(=O)/C2=C(\Nc1ccc(CN(C)C)cc1)c1ccccc1
Ephrin type-B receptor 4
  Kd: > 30 µM (inactive)
[1]
  Kd: > 30 µM (inactive)
[2]
  Kd: > 30 µM (inactive)
[3]
  Kd: > 30 µM (inactive)
Myosin-14
  Kd: > 30 µM (inactive)
[4]
  Kd: > 30 µM (inactive)
[5]
  Kd: > 30 µM (inactive)

## C=CC(=O)N1CCC[C@H](n2c(=O)n(-c3ccc(Oc4ccccc4)cc3)c3c(N)ncnc32)C1
Ephrin type-B receptor 4
  Kd: > 30 µM (inactive)
[1]
  Kd: > 30 µM (inactive)
[2]
  Kd: > 30 µM (inactive)
[3]
  Kd: > 30 µM (inactive)
Myosin-14
  Kd: > 30 µM (inactive)
[4]
  Kd: > 30 µM (inactive)
[5]
  Kd: > 30 µM (inactive)

## Cc1nc2cc(-c3nn(C(C)C)c4ncnc(N)c34)ccc2o1
Ephrin type-B receptor 4
  Kd: > 30 µM (inactive)
[1]
  Kd: > 30 µM (inactive)
[2]
  Kd: > 30 µM (inactive)
[3]
  Kd: > 30 µM (inactive)
Myosin-14
  Kd: > 30 µM (inactive)
[4]
  Kd: > 30 µM (inactive)
[5]
  Kd: > 30 µM (inactive)

## COCc1c(-c2ccc(NC(=O)Nc3cc(C(F)(F)F)ccc3F)c(F)c2)c2c(N)ncnn2c1CN1CCOCC1
Ephrin type-B receptor 4
  Kd: > 30 µM (inactive)
[1]
  Kd: > 30 µM (inactive)
[2]
  Kd: > 30 µM (inactive)
[3]
  Kd: > 30 µM (inactive)
Myosin-14
  Kd: > 30 µM (inactive)
[4]
  Kd: > 30 µM (inactive)
[5]
  Kd: > 30 µM (inactive)

## COc1cc(Nc2ncc3c(n2)-c2ccc(Cl)cc2C(c2c(F)cccc2OC)=NC3)ccc1C(=O)O [ALISERTIB]
[1]
  Kd: > 30 µM (inactive)
[2]
  Kd: > 30 µM (inactive)
[3]
  Kd: > 30 µM (inactive)
Myosin-14
  Kd: > 30 µM (inactive)
[4]
  Kd: > 30 µM (inactive)
[5]
  Kd: > 30 µM (inactive)

## O=C(Nc1c[nH]nc1-c1nc2cc(CN3CCOCC3)ccc2[nH]1)NC1CC1 [AT-9283]
[1]
  Kd: > 30 µM (inactive)
[2]
  Kd: 3.54 µM (active)
[3]
  Kd: > 30 µM (inactive)
Myosin-14
  Kd: > 30 µM (inactive)
[4]
  Kd: > 30 µM (inactive)
[5]
  Kd: 1.25 µM (active)

## C=CC(=O)Nc1cc2c(Nc3ccc(F)c(Cl)c3)ncnc2cc1C#CC(C)(C)N1CCN(C)CC1 [AV-412 FREE BASE]
Ephrin type-B receptor 4
  Kd: > 30 µM (inactive)
[1]
  Kd: > 30 µM (inactive)
[2]
  Kd: > 30 µM (inactive)
[3]
  Kd: > 30 µM (inactive)
[4]
  Kd: > 30 µM (inactive)
[5]
  Kd: > 30 µM (inactive)

## CNC(=O)c1ccccc1Sc1ccc2c(/C=C/c3ccccn3)n[nH]c2c1 [AXITINIB]
Myosin-14
  Kd: > 30 µM (inactive)
[4]
  Kd: > 30 µM (inactive)

## CCS(=O)(=O)N1CCN(c2ccc(Nc3ncc(C(N)=O)c(NC4CC4)n3)cc2)CC1 [Cerdulatinib Hydrochloride]
Ephrin type-B receptor 4
  Kd: > 30 µM (inactive)
[1]
  Kd: 1.48 µM (active)
[2]
  Kd: > 30 µM (inactive)
[3]
  Kd: > 30 µM (inactive)
[4]
  Kd: > 30 µM (inactive)
[5]
  Kd: > 30 µM (inactive)

## CC(C)(C)c1nc(-c2cccc(NS(=O)(=O)c3c(F)cccc3F)c2F)c(-c2ccnc(N)n2)s1 [DABRAFENIB]
[2]
  Kd: > 30 µM (inactive)
[3]
  Kd: > 30 µM (inactive)
Myosin-14
  Kd: > 30 µM (inactive)
[4]
  Kd: > 30 µM (inactive)
[5]
  Kd: > 30 µM (inactive)

## Cn1cc(C2=C(c3cn(C4CCN(Cc5ccccn5)CC4)c4ccccc34)C(=O)NC2=O)c2ccccc21 [ENZASTAURIN]
Myosin-14
  Kd: > 30 µM (inactive)
[4]
  Kd: > 30 µM (inactive)

## Cc1nc2cc(-n3ncc(C(=O)c4cc5ccccc5[nH]4)c3N)ccc2[nH]1 [FGFR INHIBITOR DEBIO 1347]
Ephrin type-B receptor 4
  Kd: > 30 µM (inactive)
[1]
  Kd: > 30 µM (inactive)
[2]
  Kd: > 30 µM (inactive)
[3]
  Kd: > 30 µM (inactive)
[4]
  Kd: > 30 µM (inactive)
[5]
  Kd: > 30 µM (inactive)

## C[C@@H](Oc1cc(-n2cnc3ccc(CN4CCN(C)CC4)cc32)sc1C(N)=O)c1ccccc1C(F)(F)F [GSK-461364]
Myosin-14
  Kd: > 30 µM (inactive)
[4]
  Kd: > 30 µM (inactive)

## COc1ccc(S(=O)(=O)N(C(C)=O)c2ccccc2/C=C/c2cc[n+]([O-])cc2)cc1 [HMN-214]
Ephrin type-B receptor 4
  Kd: > 30 µM (inactive)
[1]
  Kd: > 30 µM (inactive)
[2]
  Kd: > 30 µM (inactive)
[3]
  Kd: > 30 µM (inactive)
[4]
  Kd: > 30 µM (inactive)
[5]
  Kd: > 30 µM (inactive)

## Cc1[nH]c(/C=C2\C(=O)Nc3ccccc32)c(C)c1CCC(=O)O [ORANTINIB]
Ephrin type-B receptor 4
  Kd: > 30 µM (inactive)
[1]
  Kd: > 30 µM (inactive)
[2]
  Kd: > 30 µM (inactive)
[3]
  Kd: > 30 µM (inactive)
Myosin-14
  Kd: > 30 µM (inactive)
[4]
  Kd: 1.24 µM

## NC(=O)c1c(OCc2c(F)cc(Br)cc2F)nsc1NC(=O)NCCCCN1CCCC1 [OSI-632]
Ephrin type-B receptor 4
  Kd: > 30 µM (inactive)
[1]
  Kd: > 30 µM (inactive)
[2]
  Kd: > 30 µM (inactive)
Myosin-14
  Kd: > 30 µM (inactive)
[4]
  Kd: > 30 µM (inactive)

## CC(=O)NCC(=O)N1[C@@H]2CC[C@H]1c1ccc(Nc3ncc(C(F)(F)F)c(NC4CCC4)n3)cc12 [PF-03814735]
Ephrin type-B receptor 4
  Kd: > 30 µM (inactive)
[1]
  Kd: > 30 µM (inactive)
[2]
  Kd: > 30 µM (inactive)
[3]
  Kd: 2.96 µM
[4]
  Kd: > 30 µM (inactive)
[5]
  Kd: > 30 µM (inactive)

## CNC(=O)c1cc(Oc2ccc(NC(=O)Nc3cc(C(C)(C)C)nn3-c3ccc4ncccc4c3)c(F)c2)ccn1 [REBASTINIB]
Ephrin type-B receptor 4
  Kd: > 30 µM (inactive)
[1]
  Kd: > 30 µM (inactive)
[2]
  Kd: > 30 µM (inactive)
[3]
  Kd: > 30 µM (inactive)
Myosin-14
  Kd: > 30 µM (inactive)
[4]
  Kd: > 30 µM (inactive)

## O=C(NOCCO)c1cc(CN2OCCCC2=O)c(F)c(F)c1Nc1ccc(I)cc1F [RO-4987655]
Myosin-14
  Kd: > 30 µM (inactive)
[4]
  Kd: > 30 µM (inactive)

## N#CC[C@H](C1CCCC1)n1cc(-c2ncnc3[nH]ccc23)cn1 [RUXOLITINIB]
Myosin-14
  Kd: > 30 µM (inactive)
[4]
  Kd: > 30 µM (inactive)

## Cn1ncc(Cl)c1-c1cc(C(=O)N[C@H](CN)Cc2ccc(F)c(F)c2)oc1Cl [UPROSERTIB]
Ephrin type-B receptor 4
  Kd: > 30 µM (inactive)
[1]
  Kd: > 30 µM (inactive)
[2]
  Kd: > 30 µM (inactive)
Myosin-14
  Kd: > 30 µM (inactive)
[4]
  Kd: > 30 µM (inactive)
[5]
  Kd: > 30 µM (inactive)
